Test results: patent US9134309B2, “Polypeptide display libraries and methods of making and using thereof” (The Regents of the University of California, priority 2003, dated 2015)

Target: T1, streptavidin (Streptomyces avidinii, UniProt P22629)
T1 construct: purchased Molecular Probes (Eugene, Oreg.)
Experiment: dissociation of SA-1 peptide grafted into YFP from streptavidin coated beads, flow cytometry
Assay type: binding
Conditions: SA-1 inserted into YFP after Y145, soluble fusion protein, 1 μM biotin
Protocol: See Baird, G. S. et al. (1999) PNAS USA 96(20):11241-11246, which is herein incorporated by reference. […] See Bessette, P. H., et al. (1999) PNAS USA 96(24):13703-13708, which is herein incorporated by reference. […] Using flow cytometry, the dissociation rate constant of the steptavidin binding fluorescent protein was determined to be 0.02 s^−1.
The soluble protein was isolated using B-PER II bacterial protein extraction reagent (Pierce Biotechnology, Rockford, Ill.) following the manufacturer's protocol. About 10^7 streptavidin coated magnetic beads (Dynal Inc., Brown Deer, Wis.) were added to 40 μl of cell lysate and equilibrated at room temperature for 20 minutes. The beads were washed once in 2 ml of PBS; biotin was added to a final concentration of 1 μM, and immediately analyzed by flow cytometry as above. Lysate from a strain expressing YFP with a T7•tag insertion at the same location was used as a negative control.

T1 sequence (P22629 25-183): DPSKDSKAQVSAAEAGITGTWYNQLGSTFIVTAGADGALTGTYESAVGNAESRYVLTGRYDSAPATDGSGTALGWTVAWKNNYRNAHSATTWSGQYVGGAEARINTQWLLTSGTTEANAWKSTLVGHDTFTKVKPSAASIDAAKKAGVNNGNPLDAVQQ

RLEICQNVCYYLGTL [SA-1]
dissociation rate constant: 0.02 s⁻¹
